# Entries after “also recorded” stand apart in the source; their conditions may differ.
# Key:
# [1] = tested on: CD200; assay: qPCR of CD200 RNA levels in melanoma cell lines after MEK-inhibitor treatment; assay type: cell-based; conditions: panel of melanoma cell lines, 24 h, 100 nM
# Procedure: FIGS. 11A-C. 11A. CD200 decrease in melanomas after MEK-inhibitor treatment, but not in carcinomas (GSE10087). 11B. […] 11C. The pREP4-CD200 reporter recapitulates changes in response to MEK-inhibitor (24 h; 100 nM). Significance as * p<0.05: ** p<0.01, based on 2-sample, 2-tailed t-test. Because CD200 has been identified as regulated by MAPK-signaling in melanoma cells, a pathway which is frequently deregulated by BRAF(V600E) function, we wanted to assure that this mode of regulation holds true. To this end, we analyzed publicly available data (GSE10087) on MEK-inhibitor treatment across a cohort of carcinoma and melanoma cell lines (FIG. 11A), measured CD200 levels by qPCR following MEK inhibition in a cohort of our melanoma cell lines (FIG. 11B), and initial reporter assays (FIG. 11C). […] Using qPCR, we measured the effect of MEK-inhibitor treatment on CD200 RNA levels across our panel of melanoma cell lines (see FIG. 11B), using 24 h treatment with PD0325901 [100 nM].
# [2] = tested on: CD200 promoter (pREP4-CD200 reporter); assay: pREP4-CD200 reporter assay; assay type: cell-based, human; conditions: 24 h; 100 nM
# Procedure: FIGS. 11A-C. 11A. CD200 decrease in melanomas after MEK-inhibitor treatment, but not in carcinomas (GSE10087). 11B. […] 11C. The pREP4-CD200 reporter recapitulates changes in response to MEK-inhibitor (24 h; 100 nM). Significance as * p<0.05: ** p<0.01, based on 2-sample, 2-tailed t-test. The region next to the CD200 transcription start drives basal activity. We have therefore amplified an 850 bp fragment upstream of the CD200 start codon, and cloned it into an EBNA-carrying vector (pREP4-LUC/hygromycin [50]) that remains episomal and replicates within human cells and allows nucleosome deposition to form chromatin. Because CD200 has been identified as regulated by MAPK-signaling in melanoma cells, a pathway which is frequently deregulated by BRAF(V600E) function, we wanted to assure that this mode of regulation holds true. To this end, we analyzed publicly available data (GSE10087) on MEK-inhibitor treatment across a cohort of carcinoma and melanoma cell lines (FIG. 11A), measured CD200 levels by qPCR following MEK inhibition in a cohort of our melanoma cell lines (FIG. 11B), and initial reporter assays (FIG. 11C).
structure (smiles),measurement,setting,value
O=C(NOC[C@H](O)CO)c1ccc(F)c(F)c1Nc1ccc(I)cc1F [PD0325901],CD200 RNA levels,[1],consistently are reduced; also recorded: consistent downregulation of CD200 levels; also recorded: Consistent CD200 decrease
same,pREP4-CD200 reporter response,[2],parallels these responses
